The values that follow come from patent US20030186355A1, “Methods for selecting and producing t cell peptide epitopes and vaccines incorporating said selected epitopes” (priority 2000, published 2003).

Read-outs that look alike come from different tables or passages of the source.

The test system of assay [1] is TAP. The assay is described as follows: TAP translocation of peptides into the endoplasmic reticulum. Type of assay: biochemical.
Assay [2] deals with TAP. Conditions: previous study, Neisig et al., 1995; cited from earlier work.
For the next assay, the system named is T2 cells. Kind of assay: 51Cr cytotoxicity assay with peptide pulsed targets. Type of assay: cell-based, human. As to conditions: targets pulsed at high peptide concentrations. How it is done:
CTL activity was measured in a standard chromium release assay. Briefly, after ^51Cr labeling, target cells were pulsed with the designated peptide concentrations for 30 min or longer at 37° C. Target cells were added to various number of effector cells in a final volume of 100 μl complete culture medium in 96-well-U-bottom plates. After 4 h incubation at 37° C. supernatants were harvested.

As to “FNKSPWFTTL [proteasome fragment of MCF substrate, 10-mer]”, the “translocation by TAP into the ER” value with TAP [1] is “efficiently translocated”.

Consider FAPGNYPAL, for which the “translocation by TAP into the ER” value in the assay with TAP [2] was “not efficiently translocated”.

On to KSPWFTTL, for which the “translocation by TAP into the ER” value in the assay on TAP [2] is recorded as “not translocated by TAP at all”.

Take “GEFAPGNYPAL [proteasome fragment of Sendai substrate, N-terminally elongated 11-mer]”: in the assay on TAP [2], the “translocation by TAP into the ER” value was “most efficiently translocated length variant”.

“PSSSWDFITVD [peptide fragment said to be generated by FBL-3 cells]”: the “translocation by TAP into the ER” value in the assay with TAP [1] was “completely abolishes TAP translocation”.

In the case of “LYVDSLFFL [PRAME aa; 301-309, naturally presented in HLA-A24]”, the “lysis of peptide pulsed targets by CTL clones” value in the assay with T2 cells is “very low crossreactivity”.

Take “FNKSPWFTTLI [proteasome fragment of MCF substrate, 11-mer]”: the “translocation by TAP into the ER” value with TAP [1] was “efficiently translocated”.
